Experimental data from ChEMBL document CHEMBL3286191, “Exploring structural motifs necessary for substrate binding in the active site of Escherichia coli pantothenate kinase” (Bioorg Med Chem, 2014).
Calls of active or inactive are those of the source. The rule behind the calls is not given here.

Columns and labels:
[1] = tested on: Escherichia coli; assay: Inhibition of purified Escherichia coli pantothenate kinase using pantothenate as substrate at 0.625 to 20 mM by spectrophotometry
[2] = tested on: Escherichia coli; assay: Activity of purified Escherichia coli pantothenate kinase up to 1 uM by spectrophotometry
[3] = tested on: Escherichia coli; assay: Activity of purified Escherichia coli pantothenate kinase by spectrophotometry
[4] = tested on: Escherichia coli; assay: Ratio of kcat to Km for purified Escherichia coli pantothenate kinase by spectrophotometry

| inhibition [1] | Activity [2] | Km [3] [µM] | kcat [3] [s⁻¹] | kcat/Km [4] [M⁻¹ s⁻¹] | Structure (SMILES) |
| --- | --- | --- | --- | --- | --- |
| inactive | inactive | – | – | – | CC(C)(CO)[C@@H](O)C(=O)NCCC(=O)Nc1cc(Cl)ccc1Oc1ccc(Cl)cc1Cl |
| – | – | 450 | 1.44 | 3200 | CC(C)(CO)[C@@H](O)C(=O)NCCC(=O)Nc1ccncn1 |
| – | – | 350 | 1.03 | 2900 | CC(C)(CO)[C@@H](O)C(=O)NCCC(=O)NCCCN1CCOCC1 |
| – | – | 50 | 1.02 | 20000 | CC(C)(CO)[C@@H](O)C(=O)NCCC(=O)NCc1ccccn1 |
| – | – | 1200 | 0.13 | 100 | CCCCCNC(=O)CNCCCNC(=O)[C@H](O)C(C)(C)CO |
| – | – | 240 | 1.09 | 4500 | CCCC(=O)NCCNC(=O)CCNC(=O)[C@H](O)C(C)(C)CO |
| inactive | inactive | – | – | – | CC(C)(CO)[C@@H](O)C(=O)NCCS(=O)(=O)O |
| inactive | inactive | – | – | – | CN(C)CCCNCCCNC(=O)CCNC(=O)[C@H](O)C(C)(C)CO |
| – | – | 33 | 1.24 | 38000 | CC(C)(CO)[C@@H](O)C(=O)NCCC(=O)NCc1cccnc1 |
| – | – | > 1000 | 0.75 | 300 | CC(C)(CO)[C@@H](O)C(=O)NCCC(=O)NCCN1CCNCC1 |
| – | – | 230 | 1.17 | 5100 | CCCCCNC(=O)CCNC(=O)[C@H](O)[C@](C)(CC)CO |
| inactive | inactive | – | – | – | CC(C)(CO)[C@@H](O)C(=O)NCCNC(=N)N |
| – | – | 1000 | 0.49 | 500 | CCCc1cn(CCCNC(=O)[C@H](O)C(C)(C)CO)nn1 |
| – | – | 200 | 0.45 | 1900 | CC(C)(CO)[C@@H](O)C(=O)NCCC(=O)N1Cc2ccccc2C1 |
| – | – | > 1000 | 1.19 | 500 | CC(C)(CO)[C@@H](O)C(=O)NCCC(=O)NCC1CCNCC1 |
| inactive | inactive | – | – | – | CCCCCNC(=O)CCNC(=O)[C@H](O)[C@@](C)(CO)CCCO |
| – | – | 32 | 1.13 | 35000 | CC(C)(CO)[C@@H](O)C(=O)NCCC(=O)NCCCc1ccccc1 |
| – | – | 110 | 1.15 | 11000 | CC(C)(CO)[C@@H](O)C(=O)NCCC(=O)NCCc1ccccn1 |

| inhibition [1] | Activity [2] | Km [3] [µM] | kcat [3] [s⁻¹] | kcat/Km [4] [M⁻¹ s⁻¹] | Structure (SMILES) |
| --- | --- | --- | --- | --- | --- |
| – | – | 190 | 0.96 | 5100 | CCCCCn1cc(CNC(=O)[C@H](O)C(C)(C)CO)nn1 |
| – | – | 400 | 0.18 | 400 | CC(C)(CO)[C@@H](O)C(=O)NCCC(=O)N1CCc2ccccc21 |
| – | – | 43 | 1.02 | 24000 | CC(C)(CO)[C@@H](O)C(=O)NCCC(=O)Nc1ccccc1 |
| – | – | 21 | 1.07 | 50000 | CC(C)(CO)[C@@H](O)C(=O)NCCC(=O)O |
| inactive | inactive | – | – | – | CC(C)(CO)[C@@H](O)C(=O)NCCCOc1cc(Cl)ccc1Oc1ccc(Cl)cc1Cl |
| – | – | 130 | 0.94 | 7000 | CC(C)(CO)[C@@H](O)C(=O)NCCC(=O)NCc1ccncc1 |
| inactive | inactive | – | – | – | CC(C)(CO)[C@@H](O)C(=O)NCCCNC(=N)Nc1ccc(Cl)cc1 |
| – | – | 1200 | 0.28 | 200 | CCCCCNC(=O)CCNC(=O)[C@H](O)C(CC)(CC)CO |
| – | – | 67 | 1.15 | 17000 | CC(C)(CO)[C@@H](O)C(=O)NCCC(=O)NCc1ccccc1 |
| – | – | 110 | 1.04 | 9000 | C#CC[C@](C)(CO)[C@@H](O)C(=O)NCCC(=O)NCCCCC |
| inactive | inactive | – | – | – | CN(C)CCCNC(=O)CCNC(=O)[C@H](O)C(C)(C)CO |
| – | – | 120 | 1.12 | 10000 | CCCCCNC(=O)CNC(=O)CCNC(=O)[C@H](O)C(C)(C)CO |
| – | – | 39 | 0.78 | 20000 | Cc1cccnc1NC(=O)CCNC(=O)[C@H](O)C(C)(C)CO |
| – | – | 590 | 0.89 | 1500 | C=CC[C@](C)(CO)[C@@H](O)C(=O)NCCC(=O)NCCCCC |
| – | – | 60 | 1.03 | 17000 | CC(C)(CO)[C@@H](O)C(=O)NCCC(=O)NCCS |
| inactive | inactive | – | – | – | C=CCC[C@](C)(CO)[C@@H](O)C(=O)NCCC(=O)NCCCCC |
| – | – | 36 | 0.93 | 26000 | CCCCCNC(=O)CCNC(=O)[C@H](O)C(C)(C)CO |
| – | – | 700 | 0.23 | 300 | CCCCCNC(CNC(=O)[C@H](O)C(C)(C)CO)C(=O)O (some centres not stated) |

| Structure (SMILES) | inhibition [1] | Activity [2] | Km [3] [µM] | kcat [3] [s⁻¹] | kcat/Km [4] [M⁻¹ s⁻¹] |
| --- | --- | --- | --- | --- | --- |
| CC(C)(CO)[C@@H](O)C(=O)NCCC(=O)NCCCn1ccnc1 | – | – | 22 | 0.46 | 21000 |
